Literature values in patent US10293050B2, “Macrolide dosage forms” (Micell Technologies, Inc., priority 2010, dated 2019).

Tests used:
[1] = not given; remark: listed apart in the source
[2] = not given; remark: listed apart in the source

Compound: CO[C@H]1C[C@@H]2CC[C@@H](C)[C@@](O)(O2)C(=O)C(=O)N2CCCC[C@H]2C(=O)O[C@H]([C@H](C)C[C@@H]2CC[C@@H](O)[C@H](OC)C2)CC(=O)[C@H](C)/C=C(\C)[C@@H](O)[C@@H](OC)C(=O)[C@H](C)C[C@H](C)/C=C/C=C/C=C/1C [Rapamycin]
- protein binding: high protein binding
- bioavailability ([1]; Rapamune oral tablets or solution): < 14%
- hepatic biotransformation ([1]; in vivo): extensive hepatic biotransformation
- blood concentrations ([1]; once daily oral dosing, immunosuppressive dose 2 or 5 mg daily): 6 to 50 ng/mL
- aqueous solubility [2]: poor aqueous solubility
